Patent US20060135491A1, “Vitamin D3 analog useful for the treatment of osteoporosis” (priority 2004, published 2006)

What was measured:
NMRI mice = assay: In vivo determination of calcium levels; conditions: for Body Weight / Femur Ca / Serum Ca: 7 consecutive days
Method: Eight week old, male NMRI mice were obtained from the Animal Center of Leuven (Belgium) and fed a vitamin D-replete diet (0.2% calcium, 1% phosphate, 2000 U vitamin D/kg; Hope Farms, Woerden, The Netherlands). […] The control group was injected with vehicle (arachis oil). […] The following parameters were evaluated: serum calcium and femur calcium. Serum calcium was measured by a microcolorimetric assay (Sigma, St. Louis, Mo.). Femurs were removed and femur calcium content was measured in HCl-dissolved bone ash (obtained by heating for 24 hours in an oven at 100° C.), using the same technique as for serum calcium.

HL-60 cells = assay: Cell differentiation, NBT reduction assay; type: cell-based; conditions: in comparison with 1α,25(OH)2D3 as control (100% activity); 4 days
Method: The vitamin D analog of the present invention was evaluated for its effect on cell differentiation. Falcon tissue chambers were seeded with 4×10^4 cells/cm of HL-60 cells using RPMI 1640 medium supplemented with […] FCS and gentamycin (50 μg/mL),in a final cell volume of 5 mL. The cultures were maintained at 37° C. in an atmosphere of humidified air containing 5% CO2. After 24 hours incubation, the control 1αa,25(OH)2D3 and the compound to be tested were each dissolved in ethanol and added to the cell culture with the final concentration being less than 0.2%. After 4 days, the dishes were shaken to lose adherent cells. The cells were then washed twice in RPMI medium, counted, and then assayed for differentiation markers (NBT reduction assay). Superoxide production was measured as NBT reducing activity as described by Ostrem et al. in Proc. Natl. Acad. Sci. USA, (1987) 84: 2610-2614. HL-60 cells at 1×10^6/mL were mixed with an equal volume of freshly prepared solution of phorbol 12-myristate 13-acetate (200 ng/mL) and NBT (2 μg/mL) and incubated for 30 minutes at 37° C. The percentage of cells containing black formazan deposits was determined using a hemacytometer. […]

[1] = tested on: ovariectomized Sprague-Daley rats; assay: Three-month treatment efficacy in ovariectomized rats; type: in vivo; conditions: oral
Method: Efficacy was tested in 6 month old Sprague-Daley rats which were sham-operated or ovariectomized (OVX). Ovariectomized animals were sacrificed after two months as a pre-treatment control group, with remaining animals being treated for three months with vehicle or with (1R,3R)-5-{(E)-(2R,5R)-2-[2-(4-hydroxy-4-methylpentyl)-spiro[4.5]dec-7-ylidene]-ethylidene}-cyclohexane-1,3-diol (at dosages of 0.3, 1,3 or 10 μg/kg/day respectively) by oral administration. At the end of treatment, blood was obtained by cardiac puncture for evaluation of serum calcium levels. Hypercalcemia was identified as a mean value 10% greater than the OVX-vehicle group. Bone efficacy was measured using micro-CT (Scanco μCT 40) evaluation of the vertebral cancellous bone volume compared to either the final OVX-group and/or the pre-treatment OVX group.

[2] = target: T1, Human Vitamin D Binding Protein (hDBP) (Homo sapiens, UniProt P02774); assay: Affinity for human vitamin D binding protein, displacement of [3H]1α,25(OH)2D3; conditions: relative affinity at 50% displacement of [3H]1α,25(OH)2D3; 1α,25(OH)2D3 assigned 100%; hDBP 0.18 μM, 3 hours at 4° C.
T1 sequence (P02774 17-474): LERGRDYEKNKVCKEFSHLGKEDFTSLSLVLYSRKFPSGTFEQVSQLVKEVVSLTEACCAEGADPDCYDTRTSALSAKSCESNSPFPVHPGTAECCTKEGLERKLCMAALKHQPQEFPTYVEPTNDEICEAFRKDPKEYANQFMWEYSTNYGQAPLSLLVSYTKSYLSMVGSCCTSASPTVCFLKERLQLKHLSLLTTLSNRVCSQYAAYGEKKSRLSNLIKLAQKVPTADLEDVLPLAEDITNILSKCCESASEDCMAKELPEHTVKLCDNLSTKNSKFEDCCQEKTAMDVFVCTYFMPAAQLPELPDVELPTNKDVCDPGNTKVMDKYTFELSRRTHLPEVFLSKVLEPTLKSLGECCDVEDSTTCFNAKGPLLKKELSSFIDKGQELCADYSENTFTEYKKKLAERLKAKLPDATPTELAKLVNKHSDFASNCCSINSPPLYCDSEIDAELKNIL
Method: The solution was incubated for 3 hours at 4° C. Final phase separation was obtained by adding 0.5 mL of cold dextran-coated charcoal.

Vitamin D receptor (VDR) = target: T2, Vitamin D receptor (VDR) (Sus scrofa, UniProt A3RGC1); conditions: relative affinity at 50% displacement of [3H]1α,25(OH)2D3; 1α,25(OH)2D3 assigned 100%; porcine intestinal mucosa supernatant, 4° C., 20 hours
T2 sequence (A3RGC1 1-427): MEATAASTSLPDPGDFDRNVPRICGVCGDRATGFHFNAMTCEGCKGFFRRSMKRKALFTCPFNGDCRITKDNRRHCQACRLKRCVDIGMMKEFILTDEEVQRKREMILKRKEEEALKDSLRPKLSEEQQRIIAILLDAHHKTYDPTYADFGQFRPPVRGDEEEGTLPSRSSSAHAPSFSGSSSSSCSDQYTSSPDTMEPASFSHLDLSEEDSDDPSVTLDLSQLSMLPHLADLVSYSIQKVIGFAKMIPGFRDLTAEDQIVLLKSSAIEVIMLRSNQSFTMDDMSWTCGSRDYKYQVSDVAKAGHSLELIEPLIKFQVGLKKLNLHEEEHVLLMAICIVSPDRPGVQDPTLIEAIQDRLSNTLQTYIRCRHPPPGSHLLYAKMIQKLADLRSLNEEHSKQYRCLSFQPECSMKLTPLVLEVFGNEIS

MCF-7 cells = assay: Cell proliferation, [3H]thymidine incorporation; type: cell-based; conditions: in comparison with 1α,25(OH)2D3 as control (100% activity); 72 hours incubation
Method: The compound of the present invention was evaluated for its effect on cell proliferation. […] The cultures were maintained at 37° C. in an atmosphere of humidified air containing 5% CO2. The MCF-7 cells were seeded at approximately 5×10^3 cells/well in the DMEM modified medium in a 96-well microtiter plate. […] Finally, 1 μCi of [^3H]thymidine was added to each well and the cells were harvested after a further 4 hour incubation period. The cells were harvested with a Packard Harvester and the cell count measured by a Packard Topcount System.

## C=C1/C(=C\C=C2/CCC[C@]3(C)[C@@H]([C@H](C)CCCC(C)(C)O)CC[C@@H]23)C[C@@H](O)C[C@@H]1O [1α,25(OH)2D3, 1α,25-dihydroxyvitamin D3]
NMRI mice; 0.1 μg/kg/day i.p.
  Body Weight: 30.5 g
  Femur Ca: 10.9 mg
  Serum Ca: 13.3 mg/dL
NMRI mice; 0.2 μg/kg/day i.p.
  Body Weight: 27.8 g
  Femur Ca: 10.3 mg
  Serum Ca: 14.1 mg/dL
NMRI mice; 0.4 μg/kg/day i.p.
  Body Weight: 23.2 g
  Femur Ca: 8.9 mg
  Serum Ca: 18.2 mg/dL
NMRI mice; 1α,25(OH)2D3 assigned a value of 100%, i.p., 7 days
  estimated serum calcium level as compared with 1α,25(OH)2D3: 100%
HL-60 cells
  HL-60 cell differentiation, percentage activity (at 50% of the dose response): 100%

## CC(C)(O)CCC[C@@H]1CC[C@]2(CCC/C(=C\C=C3C[C@@H](O)C[C@H](O)C3)C2)C1 [(1R,3R)-5-{(E)-(2R, 5R)-2-[2-(4-hydroxy-4-methylpentyl)-spiro[4.5]dec-7-ylidene]-ethylidene}-cyclohexane-1,3-diol]
[1]; OVX rats, three months, 0.3, 1,3 or 10 μg/kg/day, vs pre-treatment and final OVX groups
  vertebral cancellous bone volume (micro-CT): significantly increase vertebral bone volume above pre-treatment and final OVX groups
[1]; three months, at doses that increased vertebral bone volume
  hypercalcemia (mean serum calcium 10% greater than OVX-vehicle group): did not induce hypercalcemia
[2]
  % hDBP binding: 3%
NMRI mice; 0.4 μg/kg/day i.p.
  Femur Ca: 10.1 mg
NMRI mice; 5 μg/kg/day i.p.
  Femur Ca: 11.3 mg
NMRI mice; 10 μg/kg/day i.p.
  Femur Ca: 12.3 mg
Vitamin D receptor (VDR)
  % VDR binding: 10%
MCF-7 cells
  MCF-7 cell proliferation, percentage activity (at 50% of the dose response): 450%
HL-60 cells
  HL-60 cell differentiation, percentage activity (at 50% of the dose response): 200%
